Measurements from BigSolDB 2.1.

CC(=O)c1ccc([N+](=O)[O-])cc1
solubility (mole fraction)
Details | in acetone | in acetonitrile | in cyclohexane | in ethanol | in ethyl acetate | in isopropanol | in methanol | in n-propanol | in toluene
278.15 K | 0.134 | 0.103 | – | 0.00667 | 0.101 | 0.00349 | 0.00839 | 0.00481 | 0.0674
283.15 K | 0.158 | 0.123 | 0.00154 | 0.00821 | 0.117 | 0.00455 | 0.0102 | 0.00608 | 0.0806
288.15 K | 0.185 | 0.146 | 0.00203 | 0.01 | 0.137 | 0.00577 | 0.0125 | 0.00762 | 0.0959
293.15 K | 0.216 | 0.174 | 0.00259 | 0.0123 | 0.161 | 0.00758 | 0.0155 | 0.00968 | 0.114
298.15 K | 0.25 | 0.206 | 0.00332 | 0.0155 | 0.188 | 0.00978 | 0.0187 | 0.0121 | 0.137
303.15 K | 0.287 | 0.244 | 0.00423 | 0.019 | 0.22 | 0.0128 | 0.0231 | 0.0154 | 0.164
308.15 K | 0.33 | 0.287 | 0.00542 | 0.0236 | 0.257 | 0.0169 | 0.0283 | 0.0194 | 0.195
313.15 K | 0.376 | 0.336 | 0.00694 | 0.0293 | 0.3 | 0.0223 | 0.0343 | 0.0246 | 0.232
318.15 K | 0.428 | 0.389 | 0.0089 | 0.0365 | 0.345 | 0.0296 | 0.0421 | 0.0313 | 0.275

CC(=O)c1cccc([N+](=O)[O-])c1
solubility (mole fraction)
Details | in acetone | in acetonitrile | in cyclohexane | in ethanol | in ethyl acetate | in isopropanol | in methanol | in n-propanol | in toluene
278.15 K | 0.1 | 0.0717 | – | 0.00487 | 0.0782 | 0.00433 | 0.00642 | 0.00388 | 0.0545
283.15 K | 0.121 | 0.0892 | 0.00124 | 0.00619 | 0.0906 | 0.00517 | 0.00759 | 0.00487 | 0.0657
288.15 K | 0.146 | 0.116 | 0.00159 | 0.00785 | 0.109 | 0.00635 | 0.00928 | 0.00609 | 0.082
293.15 K | 0.179 | 0.147 | 0.00204 | 0.00993 | 0.132 | 0.00778 | 0.0117 | 0.00763 | 0.103
298.15 K | 0.218 | 0.185 | 0.0026 | 0.0125 | 0.159 | 0.00944 | 0.0146 | 0.00975 | 0.128
303.15 K | 0.264 | 0.233 | 0.00333 | 0.0158 | 0.191 | 0.0117 | 0.0183 | 0.0124 | 0.161
308.15 K | 0.319 | 0.292 | 0.0043 | 0.0204 | 0.23 | 0.0145 | 0.0231 | 0.0157 | 0.2
313.15 K | 0.384 | 0.367 | 0.0056 | 0.0262 | 0.277 | 0.018 | 0.0299 | 0.0204 | 0.254
318.15 K | 0.458 | 0.454 | 0.00743 | 0.0355 | 0.341 | 0.023 | 0.0389 | 0.0265 | 0.328
